ChEMBL document CHEMBL1201862, “PubChem BioAssay data set” (2004)
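Step 1: Grow cells in 96-well plates. Step 2: Expose to compound for 48 hours at 5 concentrations. Step 3: Interpolate endpoints linearly; if unreached, use highest concentration. GI50 is the concentration that inhibits growth by half.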 Calls of active or inactive are those of the source. No stated cut-off is given here; in the data, active = GI50 up to about 1.1 µM and inactive = higher.

What was measured:
Experiment in all cases: inhibition of tumour cell growth, NCI panel, 48 h
HOP-92 = test system: HOP-92
KM12 = test system: KM12
MOLT-4 = test system: MOLT-4
OVCAR-5 = test system: OVCAR-5
UACC-257 = test system: UACC-257
TK-10 = test system: TK-10
786-0 = test system: 786-0
OVCAR-3 = test system: OVCAR-3
NCI-H226 = test system: NCI-H226
NCI-H460 = test system: NCI-H460
SK-MEL-2 = test system: SK-MEL-2
A549 = test system: A549
K562 = test system: K562
CAKI-1 = test system: CAKI-1
SK-MEL-28 = test system: SK-MEL-28
Malme-3M = test system: Malme-3M
OVCAR-8 = test system: OVCAR-8
UO-31 = test system: UO-31
NCI-H522 = test system: NCI-H522
NCI-H23 = test system: NCI-H23

Measured: GI50

CN(N=O)N1C(=O)SCC(c2ccccc2)(c2ccccc2)C1=O
inactive: HOP-92 38.9 µM | KM12 30.1 µM | MOLT-4 61.8 µM | OVCAR-5 > 100 µM | UACC-257 64.3 µM | TK-10 50.2 µM | 786-0 46.6 µM | OVCAR-3 37.6 µM | NCI-H226 14 µM | NCI-H460 9.62 µM | SK-MEL-2 18.9 µM | A549 7.98 µM | K562 65.2 µM | CAKI-1 46.3 µM | SK-MEL-28 36.8 µM | Malme-3M 34.1 µM | OVCAR-8 16.2 µM | UO-31 25.8 µM | NCI-H522 23.3 µM | NCI-H23 > 100 µM

Cc1ccc(S(=O)(=O)N/N=C2/C3C(CC2(C)C)C2(C)CCCC3(C)C2O)cc1 (configuration not stated)
inactive: HOP-92 17.2 µM | KM12 18.3 µM | MOLT-4 12.9 µM | OVCAR-5 > 10 µM | UACC-257 16.8 µM | TK-10 36 µM | 786-0 21.3 µM | OVCAR-3 34.4 µM | NCI-H226 17 µM | NCI-H460 17.8 µM | SK-MEL-2 21 µM | A549 20 µM | K562 23.9 µM | CAKI-1 39.3 µM | SK-MEL-28 18.9 µM | Malme-3M 24 µM | OVCAR-8 32.7 µM | UO-31 26.2 µM | NCI-H522 19.6 µM | NCI-H23 22.8 µM

CCCCCCCCOCC1S(=O)(=O)OCCOS1(=O)=O
inactive: HOP-92 > 100 µM | MOLT-4 > 100 µM | OVCAR-5 > 100 µM | UACC-257 > 100 µM | TK-10 > 100 µM | 786-0 > 100 µM | OVCAR-3 > 100 µM | NCI-H226 > 100 µM | NCI-H460 > 100 µM | SK-MEL-2 > 100 µM | A549 > 100 µM | K562 > 100 µM | CAKI-1 > 100 µM | SK-MEL-28 > 100 µM | Malme-3M > 100 µM | OVCAR-8 > 100 µM | UO-31 > 100 µM | NCI-H522 > 100 µM | NCI-H23 > 100 µM

O=C(O[C@@H](/C=C/c1ccccc1)P1(=O)N(Cc2ccccc2)[C@@H]2CCCC[C@H]2N1Cc1ccccc1)c1ccccc1
inactive: HOP-92 1.71 µM | KM12 2.83 µM | OVCAR-5 4.86 µM | UACC-257 8.75 µM | TK-10 > 100 µM | 786-0 3.89 µM | OVCAR-3 5.07 µM | NCI-H226 2.58 µM | NCI-H460 3.53 µM | SK-MEL-2 2.38 µM | A549 3.07 µM | K562 3.25 µM | CAKI-1 1.48 µM | SK-MEL-28 6.92 µM | Malme-3M 3.6 µM | OVCAR-8 3.63 µM | UO-31 3.4 µM | NCI-H522 4.54 µM | NCI-H23 2.64 µM

CC(C)[C@H]1CO[C@@H]2O[C@H](C)CC(=O)N21
inactive: HOP-92 > 100 µM | KM12 > 100 µM | MOLT-4 > 100 µM | UACC-257 > 100 µM | TK-10 > 100 µM | 786-0 > 100 µM | OVCAR-3 > 100 µM | NCI-H226 > 100 µM | NCI-H460 > 100 µM | SK-MEL-2 > 100 µM | A549 > 100 µM | K562 > 100 µM | CAKI-1 > 100 µM | SK-MEL-28 > 100 µM | Malme-3M > 100 µM | OVCAR-8 > 100 µM | UO-31 > 100 µM | NCI-H522 > 100 µM | NCI-H23 > 100 µM
